Experimental data reported in patent US20080276327A1, “Methods and Compositions Related to Delivery of Chemical Compounds to Invertebrate Embryos” (UNIVERSITY OF UTAH RESEARCH FOUNDATION, priority 2004, published 2008).

System: Drosophila embryos
Assay: DMSO dose-response, development and hatching of Drosophila embryos
Format: in vivo
Protocol: Initial studies examined the toxicity of DMSO in Drosophila embryos.
First it was shown that DMSO was not deleterious to normal embryonic development.
Broad dilution series were made of DMSO in PBS. Approximately 50 eggs were placed in each well of a 96 well plate containing these solutions. They were placed at 18° C. or at 25° C. and hatched offspring were counted at the end of embryonic development (36 hours at 18° and 24 hours at 25°). […] 100% of eggs produced normal larvae at concentrations as high as 5% in PBS, pH 7.2. At 7.5% DMSO the percentage declined dramatically to approximately 50% and by 10% DMSO, the percentage hatching was only ˜10%.

C[S+](C)[O-] [DMSO]
percentage hatching (7.5% DMSO in PBS): Approximately 50% | percentage hatching (10% DMSO in PBS): ~10% | eggs that produced normal larvae (DMSO as high as 5% in PBS, pH 7.2): 100% | embryos in which normal development occurs (concentrations of DMSO as high as 5%): 100% | concentrations of DMSO at which embryonic development proceeds normally to eclosion (dose-response curves): ≤ 5 % v/v | percentages surviving at 25° compared with 18° (solutions above 5% DMSO): always less than those kept at 18°
